Measurements published in ChEMBL document CHEMBL1153636, “The phosphoramidate ProTide approach greatly enhances the activity of beta-2'-C-methylguanosine against hepatitis C virus” (Bioorg Med Chem Lett, 2009).

Columns and labels:
Hepatitis C virus [1] = assay: Antiviral activity against HCV assessed as inhibition of viral replicon replication in human Huh5-2 cells; format: functional, organism-based, Hepacivirus hominis; details: Huh-5-2
[2] = Cytotoxicity against human Huh5-2 cells; format: cell-based, Huh-5-2
carboxypeptidase [3] = assay: Stability in presence of carboxypeptidase assessed as parent ProTide compound remaining; format: ADME
carboxypeptidase [4] = assay: Stability in presence of carboxypeptidase assessed as parent ProTide compound remaining after 13 hrs; format: ADME; details: read-out: Stability
[5] = Inhibition of HCV RNA-dependent RNA polymerase; parameters: species or system Hepacivirus hominis
Hepatitis C virus [6] = assay: Antiviral activity against HCV by viral replicon assay; format: functional, organism-based, Hepacivirus hominis
carboxypeptidase [7] = assay: Stability in presence of carboxypeptidase assessed as parent ProTide compound remaining after 10 mins; format: ADME; details: read-out: Stability

With `C[C@H](NP(=O)(OC[C@H]1O[C@@H](n2cnc3c(N)ncnc32)[C@](C)(O)[C@@H]1O)Oc1cccc2ccccc12)C(=O)OCc1ccccc1` (some centres undefined) the EC50 (Hepatitis C virus [1]) was 0.27 µM and the CC50 [2] was over 50 µM.
`CCOC(=O)[C@H](C)NP(=O)(OC[C@H]1O[C@@H](n2cnc3c(=O)[nH]c(N)nc32)[C@](C)(O)[C@@H]1O)Oc1cccc2ccccc12` (some centres undefined) gave an EC50 (Hepatitis C virus [1]) of 0.28 µM and a CC50 [2] of over 50 µM.
Compound `C[C@H](NP(=O)(OC[C@H]1O[C@@H](n2cnc3c(=O)[nH]c(N)nc32)[C@](C)(O)[C@@H]1O)Oc1cccc2ccccc12)C(=O)OC(C)(C)C` (some centres undefined) has an EC50 (Hepatitis C virus [1]) of 27 µM, a CC50 [2] of over 50 µM and a half-life (carboxypeptidase [3]) of 33 h. The remaining at 13 h (carboxypeptidase [4]) was 24%.
Work on `C[C@@]1(O)[C@H](O)[C@@H](CO)O[C@H]1n1cnc2c(=O)[nH]c(N)nc21` [2'-B-METHYL-GUANOSINE] yielded an EC50 (Hepatitis C virus [1]) of 10.1 µM, an IC50 [5] of 0.13 µM and a CC50 [2] of over 50 µM. It also gave an EC50 (Hepatitis C virus [6]) of 3.5 µM.
`C[C@H](NP(=O)(OC[C@H]1O[C@@H](n2cnc3c(=O)[nH]c(N)nc32)[C@](C)(O)[C@@H]1O)Oc1cccc2ccccc12)C(=O)OCc1ccccc1` (some centres undefined) showed an EC50 (Hepatitis C virus [1]) of 0.12 µM, a CC50 [2] of over 50 µM and a remaining at 10 min (carboxypeptidase [7]) of 7%. It also gave a half-life (carboxypeptidase [3]) of 0.05 h.
`C[C@@]1(O)[C@H](O)[C@@H](CO)O[C@H]1n1cnc2c(N)ncnc21` gave an EC50 (Hepatitis C virus [1]) of 0.25 µM and a CC50 [2] of over 50 µM.
In the case of `CCOC(=O)[C@H](C)NP(=O)(OC[C@H]1O[C@@H](n2cnc3c(N)ncnc32)[C@](C)(O)[C@@H]1O)Oc1cccc2ccccc12` (some centres undefined), the EC50 (Hepatitis C virus [1]) is reported as 0.24 µM and the CC50 [2] is reported as over 50 µM.
Work on `COC(=O)[C@H](C)NP(=O)(OC[C@H]1O[C@@H](n2cnc3c(=O)[nH]c(N)nc32)[C@](C)(O)[C@@H]1O)Oc1cccc2ccccc12` (some centres undefined) yielded an EC50 (Hepatitis C virus [1]) of 0.23 µM and a CC50 [2] of over 50 µM.
`C[C@H](NP(=O)(OC[C@H]1O[C@@H](n2cnc3c(N)ncnc32)[C@](C)(O)[C@@H]1O)Oc1cccc2ccccc12)C(=O)OC(C)(C)C` (some centres undefined) gave an EC50 (Hepatitis C virus [1]) of 4.18 µM and a CC50 [2] of over 50 µM.
